For series [1], the system named is LNCaP cells. Kind of series: MTT colorimetric anti-proliferative assay. The series is classed as cell-based, human. To be noted: for GI50: LNCaP, MTT, 7 days; for fold loss/reduction in anti-proliferative activity: relative to lead compound 5 (or parent 32). The method, then: The cells were treated for 7 days with renewal of test compound and media on day 4. On the 7th day, medium was renewed and MTT (3-(4,5-dimethylthiazol-2-yl)-2,5-diphenyl-2H-tetrazolium bromide) (Sigma, St Louis, Mo., USA) solution (0.5 mg MTT per ml of media) was added to the medium such that the ratio of MTT: medium was 1:10. The cells were incubated with MTT for 2 hours. The medium was then aspirated and DMSO was added to solubilize the violet MTT-formazan product.

For series [2], the target named is T1, AR (Homo sapiens, UniProt P10275, T878A).
T1 construct: host or cells: LNCaP
T1 sequence (P10275 1-920 T878A): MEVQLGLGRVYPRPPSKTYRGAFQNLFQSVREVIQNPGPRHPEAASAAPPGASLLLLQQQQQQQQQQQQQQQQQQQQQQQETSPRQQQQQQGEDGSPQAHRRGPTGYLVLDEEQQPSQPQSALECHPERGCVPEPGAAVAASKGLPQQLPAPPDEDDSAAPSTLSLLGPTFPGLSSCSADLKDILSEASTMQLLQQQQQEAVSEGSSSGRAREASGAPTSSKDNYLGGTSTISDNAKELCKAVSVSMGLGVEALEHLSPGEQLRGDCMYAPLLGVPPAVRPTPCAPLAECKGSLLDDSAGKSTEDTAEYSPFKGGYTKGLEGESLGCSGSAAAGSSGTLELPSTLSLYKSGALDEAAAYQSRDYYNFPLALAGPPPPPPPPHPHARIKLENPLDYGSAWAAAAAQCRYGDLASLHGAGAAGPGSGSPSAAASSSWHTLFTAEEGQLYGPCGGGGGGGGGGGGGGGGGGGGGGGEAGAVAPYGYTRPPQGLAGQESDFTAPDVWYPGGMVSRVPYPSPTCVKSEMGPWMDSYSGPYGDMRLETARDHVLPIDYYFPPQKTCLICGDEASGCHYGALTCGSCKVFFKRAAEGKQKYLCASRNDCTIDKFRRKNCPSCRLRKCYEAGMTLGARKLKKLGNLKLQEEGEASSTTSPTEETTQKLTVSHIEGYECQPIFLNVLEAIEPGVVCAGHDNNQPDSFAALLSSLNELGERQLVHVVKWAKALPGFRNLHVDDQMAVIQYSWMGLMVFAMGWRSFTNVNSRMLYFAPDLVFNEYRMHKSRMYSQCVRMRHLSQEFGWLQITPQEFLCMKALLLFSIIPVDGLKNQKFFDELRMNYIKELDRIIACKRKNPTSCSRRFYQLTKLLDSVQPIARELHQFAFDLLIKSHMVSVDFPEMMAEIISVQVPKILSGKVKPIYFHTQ
Kind of series: AR down-regulation, western blot analysis in LNCaP cells. To be noted: 24 h, western blot. Type of series: cell-based. On the procedure: For the Western blot analyses, LNCaP or CWR22v1 prostate cancer cells were cultured. The cells were then treated with the indicated compounds and whole cell lysates were prepared using RIPA lysis buffer (Sigma Aldrich) and protease and phosphatase inhibitors (Sigma Aldrich). All of the antibodies were ordered from cell signaling technology. Protein content was determined using the Bradford Assay (Bio-Rad, Hercules, Calif., USA). Protein was subjected to SDS-PAGE and transferred onto nitrocellulosemembrane. Membranes were then incubated with secondary antibody (cell signaling technology) at room temperature for 1 hour. Bands were visualized by chemiluminescence (Millipore). Protein expression was normalized to β-actin and densitometry was carried out using Image J or ImageQuant 5.0 (Molecular Dynamics, Sunnyvale, Calif., USA). CWR22Rv1 cells were used for endogenous levels of splice variant AR-3. Protein levels were analyzed with respective antibodies; full length AR and β-actin antibodies were purchased from cell signaling, antibody specific for splice variant AR-3 was obtained from Dr. Yun Qiu, University of Maryland, School of Medicine, Baltimore.

Where [3] appears, read: Homo sapiens, 168 h, Table 2, read-out: GI50 of C-17 modified compounds.
[4] abbreviates: Homo sapiens, 168 h, Table 4, read-out: GI50 of C-3 modified compounds.
Setting [5] is: Table 2, read-out: GI50 of C-17 modified compounds.
Setting [6] is: Table 4, read-out: GI50 of C-3 modified compounds.

Like-named read-outs stand apart in the source and are kept apart here.

For orientation: GI50 means the concentration at which growth is held to half of that of the control. The term melting point denotes the temperature of the solid-liquid transition.

With `Cc1cc2ncn(C3=CC[C@H]4[C@@H]5CC=C6C[C@@H](O)CC[C@]6(C)[C@H]5CC[C@]34C)c2cc1C` [Compound 17, 3β-Hydroxy-17-(5,6-dimethyl-1H-benzimidazol-1-yl)-androsta-5,16-diene], the melting point is 194 to 196 °C. The concentration for 50% growth inhibition (GI50) in series [1] (setting [3]) turned out to be 42.7 µM. Moreover, the “AR down-regulation (ARD) activity, in words” value (“AR down-regulation” for short) in series [2] is given as “substantial loss”.

In the case of `C[C@]12CC[C@H](OS(C)(=O)=O)CC1=CC[C@@H]1[C@@H]2CC[C@]2(C)C(n3cnc4ccccc43)=CC[C@@H]12` [Compound 34, 3β-Mesyloxy-17-(1H-benzimidazol-1-yl)-androsta-5,16-dien], the GI50 in series [1] (setting [4]) came to 42.1 µM.

`COc1ccc2ncn(C3=CC[C@H]4[C@@H]5CC=C6C[C@@H](O)CC[C@]6(C)[C@H]5CC[C@]34C)c2c1` [Compound 19, 3β-Hydroxy-17-(6-methoxy-1H-benzimidazol-1-yl)-androsta-5,16-diene] gave a melting point of 169 to 179 °C. For the same compound, in series [1] (setting [5]), the GI50 came to 4.26 µM. In addition, in series [2], the “AR down-regulation” value is reported as “no modulation of ARDA”.

With `Cc1ccc(S(=O)(=O)O[C@H]2CC[C@@]3(C)C(=CC[C@@H]4[C@@H]3CC[C@]3(C)C(n5cnc6ccccc65)=CC[C@@H]43)C2)cc1` [Compound 35, 3β-Tosyloxy-17-(1H-benzimidazol-1-yl)-androsta-5,16-dien], the melting point is 139 to 141 °C. In addition, the GI50 in series [1] (setting [6]) turned out to be 47.2 µM.

As for `C[C@]12CCC(=NOCc3ccccc3)C=C1CC[C@@H]1[C@@H]2CC[C@]2(C)C(n3cnc4ccccc43)=CC[C@@H]12` (mixture of isomers) [Compound 39, 3-((EZ)-(O-Phenylmethyl)oxime)-17-(1H-Benzimidazol-1-yl)-androsta-4,16-diene], the concentration for 50% growth inhibition (GI50) in series [1] (setting [6]) was found to be 5.57 µM.

As to `C[C@]12CCC(=O)CC1=CC[C@@H]1[C@@H]2CC[C@]2(C)C(n3cnc4ccccc43)=CC[C@@H]12` [Compound 33, 17-(1H-Benzimidazol-1-yl)-androsta-5,16-dien-3-one], the melting point was 170 to 172 °C. Moreover, the GI50 in series [1] (setting [4]) worked out at 16 µM. The “fold loss/reduction in anti-proliferative activity” value (shortened to “fold loss/reduction”) in series [1] is listed as around 5 fold.

`CC1(O)C=C2CC[C@@H]3[C@H](CC[C@]4(C)C(n5cnc6ccccc65)=CC[C@@H]34)[C@@]2(C)CC1` (stereo partly drawn) [Compound 40, 3-Methyl-3-hydroxy-17-(1H-benzimidazol-1-yl)-androsta-4,16-diene]: the melting point lay in the range of 95 to 97 °C. For the same compound, in series [1] (setting [4]), the GI50 amounted to 13.3 µM. In addition, the “fold loss/reduction” value in series [1] is recorded as around 5 fold.

Turning to `C[C@]12CC[C@H](OC(=O)C3CC=CCC3C(=O)O)CC1=CC[C@@H]1[C@@H]2CC[C@]2(C)C(n3cnc4ccccc43)=CC[C@@H]12` (stereo partly drawn) [Compound 45, 3β-(6-(Cyclohex-3-enecaboxylic acid)carboxylate)-17-(1H-benzimidazol-1-yl)-androsta-5,16-diene], the GI50 in series [1] (setting [6]) came out at 8.22 µM.

Turning to `CON=C1C=C2CC[C@@H]3[C@H](CC[C@]4(C)C(n5cnc6ccccc65)=CC[C@@H]34)[C@@]2(C)CC1` (mixture of isomers) [Compound 38, 3-((EZ)-O-Methyloxime)-17-(1H-Benzimidazol-1-yl)-androsta-4,16-diene], the GI50 in series [1] (setting [6]) turned out to be 3.38 µM.

As for “3β-(3-(Oxycarbonyl)phenylacetic acid)-17-(1H-benzimidazol-1-yl)-androsta-5,16-diene [Compound 44]”, the concentration for 50% growth inhibition (GI50) in series [1] (setting [6]) amounted to 7.78 µM.

Regarding `C[C@]12CC[C@H](OC(=O)COCC(=O)O)CC1=CC[C@@H]1[C@@H]2CC[C@]2(C)C(n3cnc4ccccc43)=CC[C@@H]12` [Compound 46, 3β-(Oxycarbonyl-(methoxy)acetic acid)-17-(1H-benzimidazol-1-yl)-androsta-5,16-diene], the GI50 in series [1] (setting [6]) stood at 9.13 µM.

Turning to `C[C@]12CC[C@H](OC(=O)n3cncn3)CC1=CC[C@@H]1[C@@H]2CC[C@]2(C)C(n3cnc4ccccc43)=CC[C@@H]12` [Compound 49, 3β-(1H-1,2,4-Triazole-1-carboxylate)-17-(1H-benzimidazol-1-yl)-androsta-5,16-diene], in series [1] (setting [6]), the GI50 came to 6.67 µM. In addition, in series [1] (relative to 47), the “fold decrease in anti-proliferative activity” value was around 8 fold.

Compound `C[C@]12CC[C@H](O)CC1=CC[C@@H]1[C@@H]2CC[C@]2(C)C(n3cnc4cc5ccccc5cc43)=CC[C@@H]12` [Compound 20, 3β-Hydroxy-17-(1H-benzo[f]benzimidazol-1-yl)-androsta-5,16-diene] registered a melting point of 150 to 152 °C. For the same compound, in series [1] (setting [3]), the GI50 was 19.1 µM. For the same compound, in series [2], the “AR down-regulation” value is given as “significant loss of ARDA”.

`CC(C)CCNCC1=C(n2cnc3ccccc32)[C@@]2(C)CC[C@H]3[C@@H](CC=C4C[C@@H](O)CC[C@@]43C)[C@@H]2C1` [Compound 25, 3β-Hydroxy-17-(1H-benzimidazol-1-yl)-16-((isopentylamino)methyl)-androsta-5,16-diene]: the melting point lay in the range of 111 to 113 °C. The “AR down-regulation” value in series [2] is listed as “significant loss of ARD”.

Take `C[C@]12CCC(=O)C=C1CC[C@@H]1[C@@H]2CC[C@]2(C)C(n3cnc4ccccc43)=CC[C@@H]12` [Compound 32, 17-(1H-Benzimidazol-1-yl)-androsta-4,16-dien-3-one]: the GI50 in series [1] (setting [4]) turned out to be 2.64 µM.

Consider `C[C@]12CC[C@H](O)CC1=CC[C@@H]1[C@@H]2CC[C@]2(C)C(n3cnc4cc(C#N)ccc43)=CC[C@@H]12` [Compound 18, 3β-Hydroxy-17-(5(6)-nitrile-1H-benzimidazol-1-yl)-androsta-5,16-diene], for which the GI50 in series [1] (setting [5]) turned out to be 2.81 µM. Also, in series [2], the “AR down-regulation” value is reported as “diminished AR down-regulation (ARD) activity”.

For the compound `C[C@]12CC[C@H](O)CC1=CC[C@@H]1[C@@H]2CC[C@]2(C)C(n3c(Cl)nc4ccccc43)=CC[C@@H]12` [Compound 22, 3β-Hydroxy-17-(2-chloro-1H-benzimidazol-1-yl)-androsta-5,16-diene], the melting point lay within 83 to 86 °C. For the same compound, the GI50 in series [1] (setting [3]) stood at 10.1 µM. Besides, the “fold loss/reduction” value in series [1] worked out at 3 fold.

The compound `C[C@]12CC[C@H](O)CC1=CC[C@@H]1[C@@H]2CC[C@]2(C)C(n3cnc4c(Cl)ncnc43)=CC[C@@H]12` [Compound 21, 3β-Hydroxy-17-(6-Chloro-9H-purin-9-yl)-androsta-5,16-diene] registered a melting point of 272 to 274 °C. Moreover, the GI50 in series [1] (setting [5]) is 13.5 µM. Moreover, the “fold loss/reduction” value in series [1] turned out to be 4 fold.

Consider `C[C@]12CC[C@H](O)CC1=CC[C@@H]1[C@@H]2CC[C@]2(C)C(n3cnc4ccccc43)=C(CNc3ccccc3)C[C@@H]12` [Compound 28, 3β-Hydroxy-17-(1H-benzimidazol-1-yl)-16-((phenylamino)methyl)-androsta-5,16-diene], for which the melting point lay within 130 to 132 °C. The 50% growth inhibitory concentration (GI50) in series [1] (Homo sapiens, 168 h, LNCaP cells, Table 3, read-out: GI50 of C-16 modified compounds) was determined as 22.1 µM. Also, in series [2], the “AR down-regulation” value is given as “significant loss of ARD”.

Values taken from US9884067B2, “Androgen receptor down-regulating agents and uses thereof” (UNIVERSITY OF MARYLAND EASTERN SHORE, priority 2013, dated 2018).
